Results: article PMC5320487, “Intrinsic Peroxidase-like Activity of Ficin” (Scientific Reports, 2017)

Test system: Ficin
Assay: absorbance at […] nm, steady-state kinetics, Michaelis-Menten fit
Type: biochemical
Conditions: peroxidase-like activity; 0.80 mM H2O2, 20 mM phosphate buffer pH 5.0, 35 °C; ping-pong

For `Cc1cc(-c2cc(C)c(N)c(C)c2)cc(C)c1N` [TMB], which Km is on record?
The Km was 0.19 ± 0.012 mM.
